Test results as given in patent US7183094B2, “Bacterial mycothiol S-conjugate amidase family” (The Regents of the University of California, priority 1999, dated 2007).

Columns and labels:
[1] = molecular target: mycothiol S-conjugate amidase in partially purified M. smegmatis cell extract (Mycolicibacterium smegmatis, UniProt A0R2W9); details: for product yielded from 1.0 equivalent of MSmB (0.1 nmol): 4 determinations at >50% conversion
Procedure: The experiment was repeated using a partially purified cell extract and samples of the incubation mixture were analyzed at intervals for the other potential product of MSmB cleavage, GlcN-Ins, as well as for MSmB and AcCySmB.
A preparation of the mycothiol S-conjugate amidase (30–50% saturated ammonium sulfate fraction chromatographed on Sephadex G-75) was used to study the stoichiometry of the reaction. Reaction was initiated by mixing a sample (9 μL, 7 μg total protein) of the preparation of the enzyme with 0.9 mL of 50 mM sodium phosphate, pH 7.5 containing 100 μM MSmB.
For determination of bimane derivatives of thiols, a sample (70 μL) of reaction mixture was removed, mixed with 4 μL 5 M methanesulfonic acid, and analyzed by HPLC without dilution.
For analysis of GlcN-Ins, a sample (2–8 μL) of the reaction mixture was mixed with enough 1M HEPES chloride pH 8 to bring the volume to 10 μl and then with 5 μL acetonitrile and 5 μL of 10 mM AccQ-Fluor reagent (6-aminoquinolyl-N-hydroxysuccinimidyl carbamate, Waters). The mixtures were incubated for 1 min at room temperature followed by 10 min at 60° C., diluted with 60 μL of water, and quantified by HPLC as previously described (S. J. Anderberg, et al. (1998) supra.).

[2] = molecular target: M. tuberculosis mycothiol S-conjugate amidase (Rv1082) (Mycobacterium tuberculosis, UniProt P9WJN1); experiment: Amidase activity of recombinant Rv1082 protein expressed in E. coli; assay type: biochemical, Mycobacterium tuberculosis H37Rv; details: for amidase activity: 0.1 mM (100 μM) substrate, extracts of IPTG-induced cells
Chain of M. tuberculosis mycothiol S-conjugate amidase (Rv1082) (P9WJN1 whole entry, looked up): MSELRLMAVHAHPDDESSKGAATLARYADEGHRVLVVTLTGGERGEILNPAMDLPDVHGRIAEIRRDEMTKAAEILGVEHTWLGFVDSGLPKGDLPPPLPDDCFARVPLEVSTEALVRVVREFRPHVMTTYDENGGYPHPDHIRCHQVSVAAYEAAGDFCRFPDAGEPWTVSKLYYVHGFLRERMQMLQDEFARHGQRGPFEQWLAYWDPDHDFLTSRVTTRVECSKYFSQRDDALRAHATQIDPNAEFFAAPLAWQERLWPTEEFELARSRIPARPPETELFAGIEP
Procedure: Purification and renaturation of mycothiol S-conjugate amidase from inclusion bodies. The approach taken involved solublization of the inclusion bodies in a highly concentrated urea and DTT solution followed by […] Cells were cultured in Luria Bertani broth containing 100 μg/mL ampicillin at 37° C. to OD600=0.8 when isopropyl-β-D-thiogalactopyranoside added to 0.4 mM and the culture was shaken overnight at 25° C. Cells were pelleted by centrifugation for 10 min at 5000 g and 4° C., sonicated in 5 volumes of assay buffer on ice, and centrifuged for 5 min at 14000 g at room temperature. About 85% of the amidase activity, using MSmB as substrate, was associated with the pellet fraction which was resuspended and incubated with periodic vortexing for 1 h at 37° C. in 8 M urea containing 20 mM DTT. The suspension was centrifuged for 3 min at 14000 g and the supernatant dialyzed against 100 volumes of 25 mM HEPES chloride pH 7.5 containing 1 mM glutathione disulfide and 2 mM glutathione for 15 h, and then against 100 volumes of 25 mM HEPES chloride pH 7.5 containing 3 mM 2-mercaptoethanol for 4 h. After centrifugation, the supernatant contained soluble amidase activity and was assayed with 0.1 mM mycothiol and 0.1 mM MSmB as described above.
Alkylation of MSH with mBBr produces the fluorescent S-conjugate, MSmB, which can be quantitated by HPLC with fluorescence detection (Newton et al. 1995; Newton et al. 1996). E coli has no mycothiol metabolism and is not expected to contain mycothiol conjugate amidase endogenous proteins that would give background to these assays.
Functional and Comparative analysis of mycothiol S-conjugate amidase. […] When these extracts were assayed with 0.1 mM mycothiol as substrate, <0.002 nmol/min/mg amidase activity was observed. […] (Table 2).

[3] = molecular target: T1, purified M. smegmatis mycothiol S-conjugate amidase (Mycolicibacterium smegmatis, UniProt A0R2W9); experiment: Substrate specificity of purified mycothiol S-conjugate amidase (GlcN-Ins production); assay type: biochemical, Mycobacterium smegmatis; details: for Activity: GlcN-Ins production from 0.1 mM substrate by 0.022 μg purified amidase at 30 C; for Relative Activity (%): relative to MSmB taken as 100%, 0.1 mM substrate
T1 sequence (A0R2W9 whole entry): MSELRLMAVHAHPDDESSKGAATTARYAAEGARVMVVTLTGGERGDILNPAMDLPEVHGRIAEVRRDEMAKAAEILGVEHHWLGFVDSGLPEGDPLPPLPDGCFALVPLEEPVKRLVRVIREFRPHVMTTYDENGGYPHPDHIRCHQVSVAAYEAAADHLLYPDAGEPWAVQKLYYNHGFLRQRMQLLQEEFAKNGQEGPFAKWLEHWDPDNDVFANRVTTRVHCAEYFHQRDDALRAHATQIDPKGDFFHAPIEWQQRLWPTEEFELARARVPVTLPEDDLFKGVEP
Procedure: The specificity of the amidase for substrate was assessed by measuring the production of GlcN-Ins in most cases. A sample (5 μL) of 1 mM substrate was mixed with 40 μL of 3 mM 2-mercaptoethanol, 25 mM HEPES chloride, pH 7.5. The reaction was initiated with 5 μL of purified amidase (50-fold diluted stock, 4.4 μg ml^−1). Triplicate samples were quenched at 0, 10, and 30 min by mixing each sample with 50 μL of acetonitrile containing 5 mM NEM and incubating at 60 C for 10 min. After cooling on ice, the samples were clarified by centrifugation for 15 min at 14000 g. […]

[4] = molecular target: T1, purified M. smegmatis mycothiol S-conjugate amidase
Procedure: In vitro Enzymatic assays. […] Separation of the various modified thiols was performed by high-pressure liquid chromatography (HPLC). A sample (2–10 μL) of extract was mixed with 40 μL of 30 μM MSmB in 3 mM 2-mercaptoethanol, 25 mM N-2-hydroxyethylpiperazine-N′-2-ethanesulfonic acid (HEPES) chloride pH 7.5 and reacted […] at 30° C. before quenching the reaction with 50 μL of 40 mM methanesulfonic acid on ice. The mixture was centrifuged for 3 min at 14,000×g in a microcentrifuge at room temperature and the supernatant analyzed by HPLC without dilution. A shortened version (45 min) of HPLC method 1 of Fahey and Newton (R. C. Fahey, et al. (1987) Methods Enzymol. 143:85–96) was used for separation of MSmB and AcCySmB.

[5] = molecular target: M. smegmatis mycothiol S-conjugate amidase (Mycolicibacterium smegmatis, UniProt A0R2W9); experiment: Inhibition of amidase cleavage of MSmB; assay type: biochemical, Mycobacterium smegmatis; details: 100 μM MSmB as substrate, n=2
Chain of M. smegmatis mycothiol S-conjugate amidase (A0R2W9 whole entry): as above
Procedure: Tests were also conducted to determine whether mycothiol inhibits the cleavage of 100 μM MSmB by invention S-conjugate amidase. The amidase activity was decreased by 30±3, 48±3, and 89±3% (n=2) at 1, 3, and 10 mM mycothiol, respectively.
Preparation of Mycothiol S-conjugates. Mycothiol S-conjugates were prepared by reaction of excess electrophile with mycothiol followed by removal or reaction of excess electrophile. Stock solutions (100 mM) of electrophile were prepared in acetonitrile (NEM, iodoacetamide; Sigma) or in dimethylsulfoxide [7-diethylamino-3-(4′-maleimidylphenyl)-4-methylcoumarin (CPM, Molecular Probes), 3-(N-maleimidopropionyl)biocytin (MPB, Sigma)]. Reaction with these electrophiles at 2 mM in 25 mM *HEPES chloride pH 7.5 was initiated by addition of mycothiol to 1 mM from a 32 mM stock solution in H2O (pH˜3) and was allowed to proceed 15 min in the dark. Excess reagent was removed by extracting 3 times with an equal volume of H2O-saturated dichloromethane. A cerulenin (Sigma) stock solution (100 mM in acetonitrile) was diluted 5-fold in 25 mM HEPES chloride pH 7.5, reacted 15 min with 1 mM mycothiol, and extracted 5 times with H2O-saturated dichloromethane. Prior to extraction a 1 μL aliquot was withdrawn for reaction with mBBr and analysis of residual mycothiol by HPLC. […] Stock solutions (50 mM) of p-sulfobenzoyloxybromobimane (sBBr) and monobromotrimethylammoniobimane (qBBr) were prepared in 50% aqueous dimethylsulfoxide and diluted to 2 mM for reaction with 1 mM mycothiol in 25 mM HEPES chloride pH 7.5 for 15 min. Since these charged electrophiles cannot be extracted with dichloromethane, reaction was terminated with excess (1.1 mM) 2-mercaptoethanol.

[6] = test system: M. smegmatis mc^2155 cells; experiment: M. smegmatis culture treated with mBBr: fate of mycothiol-related compounds and growth; assay type: cell-based, Mycobacterium smegmatis
Procedure: Since mBBr is known to penetrate cells rapidly and to convert intracellular thiols to their bimane derivatives (Newton, et al. (1995) supra.), the fate of mycothiol in M. smegmatis cells treated with mBBr was examined to ascertain whether the reaction shown in FIG. 1C occurs in vivo. A logarithmic phase culture of M. smegmatis was cooled on ice to ˜3° C. to reduce enzymatic reactions prior to reaction with 0.5 mM mBBr. Excess reagent was reacted with 2-mercaptoethanol and the cells were pelleted, washed, and resuspended in a small amount of ice cold medium. The cells were diluted with prewarmed medium and replaced in the shaking incubator at 37° C. (time, t=0). Samples were removed and analyzed for intracellular and extracellular mycothiol related compounds over a 4 h interval (FIG. 3).
A logarithmic phase culture of M. smegmatis was cooled on ice to ˜3° C. to reduce enzymatic reactions prior to reaction with 0.5 mM mBBr. Excess reagent was reacted with 2-mercaptoethanol and the cells were pelleted, washed, and resuspended in a small amount of ice cold medium. The cells were diluted with prewarmed medium and replaced in the shaking incubator at 37° C. (time, t=0). Samples were removed and analyzed for intracellular and extracellular mycothiol related compounds over a 4 h interval (FIG. 3).
At t=0, […] per 100 mL (3.5 μmol per g RDW) of AcCySmB was present in the cells and […] per 100 mL was found in the medium. Within 5 min the cellular AcCySmB level had fallen to […] per 100 mL and the medium level increased to 220 nmol per 100 mL. Subsequent analyses found essentially all of the AcCySmB in the medium at a level of 225–230 nmol per 100 mL, accounting for 80–90% of the original cellular mycothiol content. No MSmB appears to be exported from cells as […] (<0.5%) was detected in the medium or the cell washes. A logarithmic phase culture (1 L) of M. smegmatis mc^2155 (OD600=1.2) in 7H9 Middlebrook medium was cooled on ice to 3° C. The iced culture was incubated with mBBr (0.5 mM from a 180 mM stock solution in acetonitrile) for 20 min; excess 2-mercaptoethanol (1.0 mM) was added, and the incubation continued on ice for an additional 10 min. The cells were pelleted by centrifugation and washed twice with 200 mL of sterile, ice-cold 7H9 Middlebrook medium to remove excess bimane derivative of 2-mercaptoethanol. The cells were resuspended in 50 mL of sterile ice cold medium and the experiment was initiated (t=0) by dilution into 950 mL of prewarmed (37° C.) 7H9 Middlebrook medium. The cell suspension was shaken in an incubator (225 rpm, 37° C.) and a “t=0” sample (100 mL) was removed from the culture within one min. […]

[7] = test system: M. smegmatis mutant blocked in mycothiol production; details: Newton et al. (1999); cited from earlier work
[8] = 0.1 mM substrate, resolubilized crude protein extract

Chain of mycothiol S-conjugate amidase in partially purified M. smegmatis cell extract (A0R2W9 whole entry): as above

CC(=O)N[C@@H](CSCc1c(C)c(=O)n2c(=O)c(C)c(C)n12)C(=O)O [AcCySmB]
product yielded from 1.0 equivalent of MSmB (0.1 nmol) [1]: 1.00±0.02 equivalent

N[C@H]1[C@@H](OC2[C@H](O)[C@H](O)C(O)[C@H](O)[C@H]2O)O[C@H](CO)[C@@H](O)[C@@H]1O (stereo partly drawn) [GlcN-Ins, 1-D-myo-inosityl-2-amino-2-deoxy-α-D-glucopyranoside]
product yielded from 1.0 equivalent of MSmB (0.1 nmol) [1]: 0.80±0.08 equivalent

CC(=O)N[C@@H](CSCc1c(C)c(=O)n2c(=O)c(C)c(C)n12)C(=O)N[C@H]1[C@@H](OC2[C@H](O)[C@H](O)C(O)[C@H](O)[C@H]2O)O[C@H](CO)[C@@H](O)[C@@H]1O (some centres unmarked) [MSmB]
amidase activity [2]: 4.1 nmol/min/mg | AcCysmB produced [2, 8]: 5.4±0.3 nmoles/min/mg protein | GlcN-Ins produced [2, 8]: 4.1±0.05 nmoles/min/mg protein | rate enhancement relative to mycothiol (free thiol) ([2]; recombinant M. tuberculosis amidase): more than 2000 fold | Activity [3]: 4480 ± 870 nmol/min/mg | Relative Activity (%) [3]: (100) % | conversion of MSmB ([1]; 60 min at 23° C.): 97% | specific activity of pooled G-100 peak fractions ([4]; 30 μM MSmB as substrate): ~3,000 nmol/min-mg protein | amidase reaction rate ([4]; 30 μM MSmB, purified amidase): ~3000 nmol/min/mg | Km ([4]; MSmB as substrate): 95 ± 8 µM | kcat ([4]; MSmB as substrate): 8 s⁻¹

CC(=O)N[C@@H](CSSC[C@H](NC(C)=O)C(=O)N[C@H]1[C@@H](OC2[C@H](O)[C@H](O)C(O)[C@H](O)[C@H]2O)O[C@H](CO)[C@@H](O)[C@@H]1O)C(=O)N[C@H]1[C@@H](OC2[C@H](O)[C@H](O)C(O)[C@H](O)[C@H]2O)O[C@H](CO)[C@@H](O)[C@@H]1O (some centres unmarked) [Mycothiol disulfide]
Activity [3]: 25 ± 1 nmol/min/mg | Relative Activity (%) [3]: 0.6%

CC(=O)N[C@@H](CS)C(=O)N[C@H]1[C@@H](OC2[C@H](O)[C@H](O)C(O)[C@H](O)[C@H]2O)O[C@H](CO)[C@@H](O)[C@@H]1O (stereo partly drawn) [Mycothiol, 1-D-myo-inosityl-2-(N-acetylcysteinyl)amido-2-deoxy-α-D-glucopyranoside]
amidase activity [2]: < 0.002 nmol/min/mg | GlcN-Ins produced [2, 8]: < 0.0023 nmoles/min/mg protein | decrease of amidase activity ([5]; 1 mM mycothiol): 30±3% | decrease of amidase activity ([5]; 3 mM mycothiol): 48±3% | decrease of amidase activity ([5]; 10 mM mycothiol): 89±3% | rate as % of the rate with 0.1 mM MSmB ([3]; 2 mM mycothiol): 0.3% | rate of GlcN-Ins formation ([3]; 2 mM mycothiol, conditions otherwise as for Table 2): 14 ± 1 nmol/min/mg | Activity [3]: 4 ± 1 nmol/min/mg | Relative Activity (%) [3]: 0.1%

Cc1c(C)n2c(CBr)c(C)c(=O)n2c1=O [mBBr, monobromobimane]
A600 ([6]; 8.5 h at 37 C after mBBr treatment): 1.6 | final A600 ([6]; 30 h at 37 C after mBBr treatment): ~2.6 | initial decrease of A600 value ([6]; during the 4 h incubation after 0.5 mM mBBr treatment): ~15% | A600 value recovered ([6]; within the 4 h incubation, equals initial value): 1.2

CO[C@H]1/C=C/O[C@@]2(C)Oc3c(C)c(O)c4c(O)c(c(/C=N/N5CCN(C)CC5)c(O)c4c3C2=O)NC(=O)/C(C)=C\C=C\[C@H](C)[C@H](O)[C@@H](C)[C@@H](O)[C@@H](C)[C@H](OC(C)=O)[C@@H]1C [rifampin]
increased sensitivity of the mutant [7]: 20 fold
